Data as given in ChEMBL document CHEMBL5729318, “Pharmaceutical compounds for treatment of medical disorders” (2022).

Target: Complement factor D (Homo sapiens, UniProt P00746)
Assay: Human Factor D Assay: Human Factor D (purified from human serum, Complement Technology, Inc.) at 80 nM final concentration is incubated with test compound at various concentrations for 5 min at room temperature in 50 mM Tris, 1M NaCl, pH 7.5. A synthetic substrate Z-L-Lys-SBzl and DTNB (Ellman's reagent) are added to final concentrations of 100 μM each. Absorbance at 405 nm (A405) is recorded at 30 second intervals for 30 min using a microplate spectrophotometer. IC50 values are calculated by nonlinear regression of Complement Factor D reaction rates as a function of test compound concentration.

Chain of Complement factor D (P00746 whole entry): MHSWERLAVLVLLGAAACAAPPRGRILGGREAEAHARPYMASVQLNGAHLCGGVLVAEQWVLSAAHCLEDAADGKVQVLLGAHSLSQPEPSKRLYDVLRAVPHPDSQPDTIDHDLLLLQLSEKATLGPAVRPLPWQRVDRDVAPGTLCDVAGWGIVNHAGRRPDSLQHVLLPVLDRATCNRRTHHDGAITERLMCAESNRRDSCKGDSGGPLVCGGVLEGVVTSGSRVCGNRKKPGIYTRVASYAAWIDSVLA

Row | Compound | IC50 [nM]
1 | CC(=O)c1nn(CC(=O)N2[C@H](C(=O)Nc3cccc(Br)n3)C[C@@]3(C)C[C@@H]23)c2c(C)cccc12 | < 1000
2 | CC(=O)c1nn(CC(=O)N2[C@H](C(=O)Nc3nc(Br)ccc3C)C[C@@]3(C)C[C@@H]23)c2ccc(N)cc12 | < 1000
3 | CC(=O)c1nn(CC(=O)N2C[C@H](F)C[C@H]2C(=O)Nc2cccc(Br)n2)c2ccc(C3OCC(N)CO3)cc12 (stereo partly specified) | < 1000
4 | CC(=O)c1nn(CC(=O)N2[C@H](C(=O)Nc3nc(Br)ccc3C)C[C@@]3(C)C[C@@H]23)c2c(C)cccc12 | < 1000
5 | CC(=O)c1nn(CC(=O)N2[C@H](C(=O)Nc3cccc(Br)n3)C[C@@]3(C)C[C@@H]23)c2ccc(NC(=O)N3CCC(F)(F)C3)cc12 | < 1000
6 | CC(=O)c1nn(CC(=O)N2[C@H](C(=O)Nc3nc(Br)ccc3C)C[C@@]3(C)C[C@@H]23)c2ccc(N(C)C)cc12 | < 1000
